Data on one compound can be found in ChEMBL document CHEMBL1156770, “X-ray crystallographic analysis of alpha-ketoheterocycle inhibitors bound to a humanized variant of fatty acid amide hydrolase” (J Med Chem, 2010).

The test has as its target T1, Fatty-acid amide hydrolase 1 (Homo sapiens, UniProt O00519).
T1 sequence (O00519 whole entry): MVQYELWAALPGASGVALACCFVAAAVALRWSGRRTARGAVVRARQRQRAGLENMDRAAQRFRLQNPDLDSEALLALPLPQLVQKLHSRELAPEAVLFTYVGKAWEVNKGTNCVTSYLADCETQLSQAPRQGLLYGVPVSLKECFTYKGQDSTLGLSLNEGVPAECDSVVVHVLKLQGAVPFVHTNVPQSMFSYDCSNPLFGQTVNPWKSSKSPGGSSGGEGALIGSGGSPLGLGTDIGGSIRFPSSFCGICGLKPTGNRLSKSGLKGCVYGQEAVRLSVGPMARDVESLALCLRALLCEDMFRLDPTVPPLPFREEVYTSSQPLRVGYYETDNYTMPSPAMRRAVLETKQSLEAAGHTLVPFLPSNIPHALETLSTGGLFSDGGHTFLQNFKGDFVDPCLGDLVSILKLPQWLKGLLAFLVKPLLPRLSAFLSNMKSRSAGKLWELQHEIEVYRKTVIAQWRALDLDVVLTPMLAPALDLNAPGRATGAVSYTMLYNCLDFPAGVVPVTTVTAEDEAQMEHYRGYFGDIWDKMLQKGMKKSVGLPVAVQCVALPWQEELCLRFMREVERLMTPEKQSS
The test is described as follows: Inhibition of FAAH.

On to `CCCCCCCC/C=C\CCCCCCCC(=O)c1ncc(-c2ccccn2)o1`, for which the affinity, expressed as Ki, was 3 nM.
